Results taken from paper PMC8799717, “Pharmacological targeting PIKfyve and tubulin as an effective treatment strategy for double-hit lymphoma” (Cell Death Discovery, 2022).

Tests used:
Assay in all cases: biochemical
Set-up in all cases: KINOMEscan active-site-directed competition binding panel, 468 kinases, percent of DMSO control at 1 uM
Conditions in all cases: KINOMEscan binding, percent of DMSO control; read-out: Ctrl%
MAPKAPK5 = MAPKAPK5 (Homo sapiens, UniProt Q8IW41)
FGFR3 = FGFR3 (Homo sapiens, UniProt P22607)
HIPK3 = HIPK3 (Homo sapiens, UniProt Q9H422)
FLT3-autoinhibited = FLT3-autoinhibited (Homo sapiens, UniProt P36888)
TNK1 = TNK1 (Homo sapiens, UniProt Q13470)
NDR2 = molecular target: T1, NDR2 (Homo sapiens, UniProt Q9Y2H1)
T1 construct: gene STK38L

NEK3 = NEK3 (Homo sapiens, UniProt P51956)
PIP5K2C = molecular target: T2, PIP5K2C (Homo sapiens, UniProt Q8TBX8)
T2 construct: gene PIP4K2C

ERK3 = molecular target: T3, ERK3 (Homo sapiens, UniProt Q16659)
T3 construct: gene MAPK6

PCTK2 = molecular target: T4, PCTK2 (Homo sapiens, UniProt Q00537)
T4 construct: gene CDK17

SLK = SLK (Homo sapiens, UniProt Q9H2G2)
ADCK4 = molecular target: T5, ADCK4 (Homo sapiens, UniProt Q96D53)
T5 construct: gene COQ8B

PIK3CA(E545A) = PIK3CA(E545A) (Homo sapiens, UniProt P42336, E545A)
TBK1 = TBK1 (Homo sapiens, UniProt Q9UHD2)
[1] = molecular target: T6, RPS6KA5(Kin.Dom.1-N-terminal) (Homo sapiens, UniProt O75582)
T6 construct: Kin.Dom.1-N-terminal

MLK1 = molecular target: T7, MLK1 (Homo sapiens, UniProt P80192)
T7 construct: gene MAP3K9

MTOR = MTOR (Homo sapiens, UniProt P42345)
HASPIN = HASPIN (Homo sapiens, UniProt Q8TF76)
CDK11 = molecular target: T8, CDK11 (Homo sapiens, UniProt Q9BWU1)
T8 construct: gene CDK19

MET(Y1235D) = MET(Y1235D) (Homo sapiens, UniProt P08581, Y1235D)
IRAK4 = IRAK4 (Homo sapiens, UniProt Q9NWZ3)
[2] = molecular target: T9, TYK2(JH1domain-catalytic) (Homo sapiens, UniProt P29597)
T9 construct: JH1domain-catalytic

CIT = CIT (Homo sapiens, UniProt O14578)
TSSK1B = TSSK1B (Homo sapiens, UniProt Q9BXA7)

T8 sequence (Q9BWU1 whole entry): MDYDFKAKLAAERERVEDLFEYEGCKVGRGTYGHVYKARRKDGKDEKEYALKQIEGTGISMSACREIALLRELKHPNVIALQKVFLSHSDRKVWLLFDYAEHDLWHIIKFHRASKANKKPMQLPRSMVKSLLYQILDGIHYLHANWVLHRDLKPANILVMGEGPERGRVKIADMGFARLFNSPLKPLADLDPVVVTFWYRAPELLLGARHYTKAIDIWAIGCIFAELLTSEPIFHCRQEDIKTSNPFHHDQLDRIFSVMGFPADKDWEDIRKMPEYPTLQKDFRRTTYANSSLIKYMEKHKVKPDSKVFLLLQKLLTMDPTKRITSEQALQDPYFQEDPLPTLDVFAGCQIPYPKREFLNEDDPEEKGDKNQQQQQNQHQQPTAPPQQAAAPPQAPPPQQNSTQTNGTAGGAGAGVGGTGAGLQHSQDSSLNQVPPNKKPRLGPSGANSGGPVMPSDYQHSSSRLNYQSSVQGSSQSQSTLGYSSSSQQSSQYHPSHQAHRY
TNK1, sequence (Q13470 whole entry): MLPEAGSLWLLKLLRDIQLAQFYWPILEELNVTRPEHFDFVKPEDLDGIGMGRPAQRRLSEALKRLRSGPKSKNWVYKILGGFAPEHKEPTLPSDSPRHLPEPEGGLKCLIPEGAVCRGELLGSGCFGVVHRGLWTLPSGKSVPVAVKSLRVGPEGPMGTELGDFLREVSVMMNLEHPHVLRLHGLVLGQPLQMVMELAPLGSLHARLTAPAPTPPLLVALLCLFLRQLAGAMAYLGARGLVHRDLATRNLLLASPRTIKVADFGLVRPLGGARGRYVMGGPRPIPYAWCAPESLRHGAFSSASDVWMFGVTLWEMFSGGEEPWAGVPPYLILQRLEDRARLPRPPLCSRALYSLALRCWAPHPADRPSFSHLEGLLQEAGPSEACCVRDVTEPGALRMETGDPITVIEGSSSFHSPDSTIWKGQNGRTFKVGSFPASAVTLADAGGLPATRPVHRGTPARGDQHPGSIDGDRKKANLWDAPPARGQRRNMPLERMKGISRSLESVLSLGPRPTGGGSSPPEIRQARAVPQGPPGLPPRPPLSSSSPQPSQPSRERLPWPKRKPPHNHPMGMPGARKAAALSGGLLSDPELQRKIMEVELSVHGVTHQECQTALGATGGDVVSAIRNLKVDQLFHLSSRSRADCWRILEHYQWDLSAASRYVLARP
T9 sequence (P29597 whole entry): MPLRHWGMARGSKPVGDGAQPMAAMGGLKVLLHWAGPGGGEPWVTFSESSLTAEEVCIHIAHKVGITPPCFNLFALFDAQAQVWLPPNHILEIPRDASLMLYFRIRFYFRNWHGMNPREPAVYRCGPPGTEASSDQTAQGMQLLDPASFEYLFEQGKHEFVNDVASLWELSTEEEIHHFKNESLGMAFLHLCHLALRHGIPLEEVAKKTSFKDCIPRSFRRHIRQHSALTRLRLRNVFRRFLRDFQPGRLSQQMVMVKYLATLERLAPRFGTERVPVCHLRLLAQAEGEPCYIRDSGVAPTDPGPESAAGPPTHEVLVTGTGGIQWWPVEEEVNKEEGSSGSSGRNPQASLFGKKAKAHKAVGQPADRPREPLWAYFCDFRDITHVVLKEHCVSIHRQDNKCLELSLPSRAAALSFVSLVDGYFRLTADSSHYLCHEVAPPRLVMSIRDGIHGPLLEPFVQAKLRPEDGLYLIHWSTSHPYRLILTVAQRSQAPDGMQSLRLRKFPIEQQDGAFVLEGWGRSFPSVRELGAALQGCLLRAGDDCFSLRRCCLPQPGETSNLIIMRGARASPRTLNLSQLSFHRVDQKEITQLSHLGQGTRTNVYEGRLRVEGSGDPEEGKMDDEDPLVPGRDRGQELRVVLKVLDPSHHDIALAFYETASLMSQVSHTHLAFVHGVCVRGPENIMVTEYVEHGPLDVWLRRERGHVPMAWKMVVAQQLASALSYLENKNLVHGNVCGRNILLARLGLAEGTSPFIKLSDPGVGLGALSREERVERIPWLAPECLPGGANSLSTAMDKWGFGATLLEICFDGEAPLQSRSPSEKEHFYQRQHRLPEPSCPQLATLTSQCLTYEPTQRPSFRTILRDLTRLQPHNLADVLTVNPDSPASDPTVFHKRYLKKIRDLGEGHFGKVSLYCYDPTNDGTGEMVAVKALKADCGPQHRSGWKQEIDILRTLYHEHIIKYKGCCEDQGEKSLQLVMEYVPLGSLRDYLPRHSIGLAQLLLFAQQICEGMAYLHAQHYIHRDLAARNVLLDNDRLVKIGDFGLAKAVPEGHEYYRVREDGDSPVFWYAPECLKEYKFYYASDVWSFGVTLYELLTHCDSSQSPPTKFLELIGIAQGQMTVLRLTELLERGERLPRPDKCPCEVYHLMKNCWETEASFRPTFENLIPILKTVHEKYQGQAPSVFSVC
HIPK3, sequence (Q9H422 whole entry): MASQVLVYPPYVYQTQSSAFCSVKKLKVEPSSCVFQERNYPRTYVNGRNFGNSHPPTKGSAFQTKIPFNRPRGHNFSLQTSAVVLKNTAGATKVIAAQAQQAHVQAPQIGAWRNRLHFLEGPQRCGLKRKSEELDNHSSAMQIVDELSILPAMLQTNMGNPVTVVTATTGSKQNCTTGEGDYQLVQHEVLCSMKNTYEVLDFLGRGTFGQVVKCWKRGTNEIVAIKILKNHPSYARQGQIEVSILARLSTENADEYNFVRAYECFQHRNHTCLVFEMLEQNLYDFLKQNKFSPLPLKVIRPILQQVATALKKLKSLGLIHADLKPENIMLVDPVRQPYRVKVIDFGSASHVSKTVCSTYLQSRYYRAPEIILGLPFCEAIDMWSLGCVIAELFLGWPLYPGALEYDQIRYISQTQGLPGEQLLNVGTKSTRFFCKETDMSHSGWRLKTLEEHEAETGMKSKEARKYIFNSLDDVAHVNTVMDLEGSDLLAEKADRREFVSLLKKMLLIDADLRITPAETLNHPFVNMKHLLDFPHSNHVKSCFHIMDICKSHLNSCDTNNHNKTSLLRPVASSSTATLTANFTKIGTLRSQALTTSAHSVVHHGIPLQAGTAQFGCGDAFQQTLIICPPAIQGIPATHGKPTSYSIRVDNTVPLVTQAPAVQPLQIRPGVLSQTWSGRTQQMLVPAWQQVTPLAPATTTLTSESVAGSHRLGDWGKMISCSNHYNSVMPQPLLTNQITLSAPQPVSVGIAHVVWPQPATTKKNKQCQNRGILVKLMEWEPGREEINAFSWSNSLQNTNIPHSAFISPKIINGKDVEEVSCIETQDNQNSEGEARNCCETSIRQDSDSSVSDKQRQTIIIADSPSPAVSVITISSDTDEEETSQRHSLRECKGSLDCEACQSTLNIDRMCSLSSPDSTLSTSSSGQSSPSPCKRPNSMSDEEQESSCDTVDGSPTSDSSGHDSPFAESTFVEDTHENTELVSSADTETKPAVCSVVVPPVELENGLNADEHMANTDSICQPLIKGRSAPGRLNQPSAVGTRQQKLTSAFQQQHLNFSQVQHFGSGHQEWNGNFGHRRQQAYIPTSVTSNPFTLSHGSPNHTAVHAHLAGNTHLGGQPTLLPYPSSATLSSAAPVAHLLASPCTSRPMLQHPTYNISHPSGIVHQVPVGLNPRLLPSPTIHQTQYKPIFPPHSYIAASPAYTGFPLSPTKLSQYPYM
FGFR3, sequence (P22607 whole entry): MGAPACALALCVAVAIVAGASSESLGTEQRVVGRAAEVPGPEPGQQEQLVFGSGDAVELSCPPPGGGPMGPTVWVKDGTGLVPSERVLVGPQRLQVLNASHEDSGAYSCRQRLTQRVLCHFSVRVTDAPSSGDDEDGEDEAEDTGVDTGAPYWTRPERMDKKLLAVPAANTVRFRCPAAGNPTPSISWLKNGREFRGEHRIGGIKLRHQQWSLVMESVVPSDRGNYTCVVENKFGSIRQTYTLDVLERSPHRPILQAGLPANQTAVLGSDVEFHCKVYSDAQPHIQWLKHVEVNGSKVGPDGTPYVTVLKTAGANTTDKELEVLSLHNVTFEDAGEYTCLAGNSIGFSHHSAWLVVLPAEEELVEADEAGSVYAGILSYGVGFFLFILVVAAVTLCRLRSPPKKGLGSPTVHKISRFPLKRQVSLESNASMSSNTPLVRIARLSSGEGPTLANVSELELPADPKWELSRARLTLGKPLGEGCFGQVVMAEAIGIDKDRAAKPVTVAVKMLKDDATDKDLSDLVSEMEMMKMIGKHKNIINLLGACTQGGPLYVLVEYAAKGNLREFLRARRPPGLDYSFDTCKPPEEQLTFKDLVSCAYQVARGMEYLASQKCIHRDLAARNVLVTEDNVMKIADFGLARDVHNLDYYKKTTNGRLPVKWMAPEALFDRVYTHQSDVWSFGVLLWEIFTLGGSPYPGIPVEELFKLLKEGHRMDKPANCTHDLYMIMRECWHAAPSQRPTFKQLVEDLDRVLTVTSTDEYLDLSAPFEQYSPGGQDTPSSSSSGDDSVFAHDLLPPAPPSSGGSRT
IRAK4, sequence (Q9NWZ3 whole entry): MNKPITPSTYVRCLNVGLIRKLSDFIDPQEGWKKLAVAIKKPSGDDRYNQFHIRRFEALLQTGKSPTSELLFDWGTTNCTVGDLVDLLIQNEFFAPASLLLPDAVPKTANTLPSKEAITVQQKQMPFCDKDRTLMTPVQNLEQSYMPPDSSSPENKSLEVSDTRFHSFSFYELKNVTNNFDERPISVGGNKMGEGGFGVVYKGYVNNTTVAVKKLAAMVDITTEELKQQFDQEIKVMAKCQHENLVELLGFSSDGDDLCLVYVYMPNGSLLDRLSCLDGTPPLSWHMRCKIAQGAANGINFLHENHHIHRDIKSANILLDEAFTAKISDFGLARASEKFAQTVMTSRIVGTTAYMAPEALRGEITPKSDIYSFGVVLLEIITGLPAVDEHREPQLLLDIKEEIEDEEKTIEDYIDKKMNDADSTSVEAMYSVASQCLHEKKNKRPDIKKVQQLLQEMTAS

`Cc1ccc(NC(=O)c2cccc(C(F)(F)F)c2)cc1Nc1cc(-c2cccnc2)nc2[nH]ccc12` [HZX-02-059] gave a remaining binding at 1 µM (MAPKAPK5) of 100%, a remaining binding at 1 µM (FGFR3) of 86% and a remaining binding at 1 µM (HIPK3) of 94%. It also gave a remaining binding at 1 µM (FLT3-autoinhibited) of 98%, a remaining binding at 1 µM (TNK1) of 91% and a remaining binding at 1 µM (NDR2) of 94%. For the same compound, the remaining binding at 1 µM (NEK3) was 54%, the remaining binding at 1 µM (PIP5K2C) was 43% and the remaining binding at 1 µM (ERK3) was 100%. For the same compound, the remaining binding at 1 µM (PCTK2) was 100%, the remaining binding at 1 µM (SLK) was 100% and the remaining binding at 1 µM (ADCK4) was 91%. For the same compound, the remaining binding at 1 µM (PIK3CA(E545A)) was 88%, the remaining binding at 1 µM (TBK1) was 100% and the remaining binding at 1 µM [1] was 94%. The remaining binding at 1 µM (MLK1) was 100%, the remaining binding at 1 µM (MTOR) was 99% and the remaining binding at 1 µM (HASPIN) was 100%. The remaining binding at 1 µM (CDK11) was 79%, the remaining binding at 1 µM (MET(Y1235D)) was 95% and the remaining binding at 1 µM (IRAK4) was 100%. For the same compound, the remaining binding at 1 µM [2] was 100%, the remaining binding at 1 µM (CIT) was 64% and the remaining binding at 1 µM (TSSK1B) was 100%.
